Test results published in patent publication US20230312550A1, “N-(2-(4-CYANOTHIAZOLIDIN-3-YL)-2-OXOETHYL)-QUINOLINE-4-CARBOXAMIDES” (AstraZeneca AB, priority 2020, published 2023).
≈ marks a conversion by molar mass, not a printed value.

Legend:
[1] = target: human dipeptidylpeptidase 7 (hDPP7) (Homo sapiens (Human), UniProt Q9UHL4); assay: hDPP7 inhibition assay; type: biochemical; details: hDPP7 15 nM, Ala-Pro-amino-methylcoumarin 5 μM, n = 1
Protocol: Compounds were tested in a biochemical inhibition assay using human dipeptidylpeptidase 7 (hDPP7) enzyme at 15 nM FAC (BPS Bioscience, #80070) and the substrate Ala-Pro-amino-methylcoumarin (BPS Bioscience, #80305) at 5 μM FAC. The enzymatic reactions were conducted in duplicate at rt for 30 min in 50 μL DPP assay buffer (BPS Bioscience, #80300). Compound solutions (in DMSO) at 10 CR, 3 fold dilution series were prepared in assay buffer ten-fold higher than the final concentration, and 5 μL of the dilution was added to a 50 μL reaction so that the highest compound concentration was 100 μM FAC and the concentration of DMSO was 1% in all wells. The plates were read on a Tecan Infinite M1000 microplate reader with excitation 340 nm and emission 460 nm. Data were analyzed in Graph Pad Prism. IC50 values were determined by plotting % inhibition versus log compound concentration and using a one site dose response model. Raw data signals were normalized using 1% DMSO as 0% control and no enzyme as 100% inhibitor control.

[2] = Kinetic solubility; details: kinetic from dmso stock
Protocol: Kinetic solubility was measured as described in Comput Aided Mol Des 2015, 29, 795.

[3] = Metabolic stability in rat hepatocytes (rHep); details: n = 1 or geometric mean of n = 2-3
[4] = Metabolic stability in human liver microsomes (HLM); details: human
Protocol: Metabolic stability in HLM was measured as described in J Comput Aided Mol Des 2015, 29, 795.

[5] = target: T1, FAP (Homo sapiens (Human), UniProt Q12884); assay: hFAP inhibition assay; type: biochemical; details: hFAP […], Ala-Pro-AMC 20 μM; n = 1 or geometric mean n = 2-3
How it was run: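 Compounds (10-point, 3-fold dilutions from 50 μM top) were preincubated 15 min at rt in the dark with 0.48 nM hFAP in pH 7.4 Tris/NaCl/Chaps buffer. Reaction was started with substrate (40 μM solution) and ran 30 min at rt. Read by fluorescence (340/460 nm); IC50 from one-site fit.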
Target sequence in this assay (Q12884 38-760): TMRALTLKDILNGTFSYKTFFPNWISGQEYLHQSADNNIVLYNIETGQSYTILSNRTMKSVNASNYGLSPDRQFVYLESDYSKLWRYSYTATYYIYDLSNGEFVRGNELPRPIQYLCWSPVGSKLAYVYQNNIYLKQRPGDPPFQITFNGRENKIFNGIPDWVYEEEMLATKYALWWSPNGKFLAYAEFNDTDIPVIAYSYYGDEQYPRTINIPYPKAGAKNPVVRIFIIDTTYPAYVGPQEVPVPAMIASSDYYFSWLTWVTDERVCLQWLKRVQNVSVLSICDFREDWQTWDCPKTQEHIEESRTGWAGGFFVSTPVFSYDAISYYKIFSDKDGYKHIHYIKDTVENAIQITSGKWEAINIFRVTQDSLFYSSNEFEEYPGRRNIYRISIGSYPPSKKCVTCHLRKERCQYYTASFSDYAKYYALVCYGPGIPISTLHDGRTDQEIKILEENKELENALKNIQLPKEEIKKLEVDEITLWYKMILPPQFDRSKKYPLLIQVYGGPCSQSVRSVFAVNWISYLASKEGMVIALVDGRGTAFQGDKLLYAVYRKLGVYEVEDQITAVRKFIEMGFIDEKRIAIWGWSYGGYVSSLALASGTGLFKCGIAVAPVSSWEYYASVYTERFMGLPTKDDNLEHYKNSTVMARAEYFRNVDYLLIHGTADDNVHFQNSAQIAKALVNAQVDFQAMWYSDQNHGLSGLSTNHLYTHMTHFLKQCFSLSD

[6] = target: human Fibroblast activation protein alpha (hFAP) (Homo sapiens (Human), UniProt Q12884); assay: hFAP inhibition assay (tight binders); type: biochemical; details: Ala-Pro-AMC 20 μM, n = 1 or geometric mean n = 2-6; note: hFAP 2.4 pM
Sequence of human Fibroblast activation protein alpha (hFAP) (Q12884 38-760): as above
Protocol: The plates were read on a PHERAstar® reader with excitation 340 nm and emission 460 nm. Data were analyzed in Genedata Screener®. IC50 values were determined by plotting % inhibition versus log compound concentration and using a one site dose response model.

[7] = target: hFAP (M39-A757) (Homo sapiens (Human), UniProt Q12884); assay: hFAP binding assay (surface plasmon resonance); details: SPR, 20° C.; for Kd: n = 1 or geometric mean n = 2-4; for hFAP Binding assay k(off) / hFAP Binding assay k(on): single cycle kinetics
Sequence of hFAP (M39-A757) (Q12884 39-757): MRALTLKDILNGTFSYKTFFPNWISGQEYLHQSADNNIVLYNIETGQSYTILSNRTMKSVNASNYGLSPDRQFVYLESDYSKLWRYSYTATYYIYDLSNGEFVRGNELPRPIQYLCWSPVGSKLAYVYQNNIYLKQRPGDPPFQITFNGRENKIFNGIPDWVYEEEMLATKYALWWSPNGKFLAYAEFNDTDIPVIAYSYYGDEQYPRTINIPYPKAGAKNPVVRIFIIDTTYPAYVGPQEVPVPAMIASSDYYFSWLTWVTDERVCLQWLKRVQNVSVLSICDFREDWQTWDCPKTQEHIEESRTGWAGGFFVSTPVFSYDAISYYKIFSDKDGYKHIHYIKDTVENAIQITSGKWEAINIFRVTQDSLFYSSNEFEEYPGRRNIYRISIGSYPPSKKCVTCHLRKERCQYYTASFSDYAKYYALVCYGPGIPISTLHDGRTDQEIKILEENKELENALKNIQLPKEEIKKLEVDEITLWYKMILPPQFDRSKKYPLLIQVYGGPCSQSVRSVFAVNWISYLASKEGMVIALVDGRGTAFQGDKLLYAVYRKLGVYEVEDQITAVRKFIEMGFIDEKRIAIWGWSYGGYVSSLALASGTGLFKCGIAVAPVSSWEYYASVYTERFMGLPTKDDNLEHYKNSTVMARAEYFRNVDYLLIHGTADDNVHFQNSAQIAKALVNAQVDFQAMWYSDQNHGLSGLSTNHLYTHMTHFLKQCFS

[8] = target: T1, FAP; assay: FAP plasma inhibition assay, human plasma; type: biochemical; details: human plasma diluted 1:40, Ala-Pro-AMC 75 μM
Protocol: (§1) This assay was adapted from the method described in Example 237 for detection of FAP target engagement enzyme activity in plasma. Plasma (anticoagulant K2EDTA) was used as the enzyme source: Human plasma (Pooled from AZ Biobank), Mouse plasma (AZ AST Biobank), and Cynomolgus plasma (BioIVT, #NHP00PLK2FNN, lot CYN222895). 384-Well black fluotrack PS plates (Greiner 781076) were used. 20 μL diluted plasma (Cynomolgus and Human plasma dilution 1:40, Mouse plasma dilution 1:67) in buffer (PBS, 0.1% BSA) was added to 0.6 μL compounds (in DMSO). Compounds were tested using 10 CR, 3 fold dilution series from 500 nM FAC. Two replicates for each assay point were run on the same plate. A fluorescence blank read was taken before substrate addition. […] Plates were incubated for 40 min at rt in the dark. […] IC50 values were determined by plotting % inhibition versus log compound concentration.
Target sequence in this assay (Q12884 24-760): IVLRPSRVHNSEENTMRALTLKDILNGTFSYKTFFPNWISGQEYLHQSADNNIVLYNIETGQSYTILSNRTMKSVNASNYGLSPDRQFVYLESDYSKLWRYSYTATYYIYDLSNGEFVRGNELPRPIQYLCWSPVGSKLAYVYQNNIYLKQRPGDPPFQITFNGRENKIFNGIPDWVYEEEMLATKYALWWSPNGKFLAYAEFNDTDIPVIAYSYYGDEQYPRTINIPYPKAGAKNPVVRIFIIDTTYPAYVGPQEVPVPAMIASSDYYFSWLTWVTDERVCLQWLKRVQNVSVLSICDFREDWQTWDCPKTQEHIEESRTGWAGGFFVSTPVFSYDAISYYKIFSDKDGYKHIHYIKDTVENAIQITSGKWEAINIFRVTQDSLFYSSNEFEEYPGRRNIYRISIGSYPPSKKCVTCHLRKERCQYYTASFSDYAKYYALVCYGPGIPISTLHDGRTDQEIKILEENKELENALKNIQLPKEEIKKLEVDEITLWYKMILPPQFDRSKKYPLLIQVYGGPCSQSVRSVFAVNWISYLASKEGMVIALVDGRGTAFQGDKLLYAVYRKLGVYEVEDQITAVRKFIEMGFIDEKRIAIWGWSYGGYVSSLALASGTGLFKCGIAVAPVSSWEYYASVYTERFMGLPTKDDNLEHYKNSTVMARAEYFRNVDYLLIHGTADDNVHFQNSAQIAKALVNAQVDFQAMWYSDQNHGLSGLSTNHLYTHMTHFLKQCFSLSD

[9] = target: FAP (Mus musculus (Mouse), UniProt P97321); assay: FAP plasma inhibition assay, mouse plasma; type: biochemical; details: mouse plasma diluted 1:67, Ala-Pro-AMC 75 μM
Sequence of FAP (Mus musculus (Mouse), UniProt P97321) (P97321 24-761): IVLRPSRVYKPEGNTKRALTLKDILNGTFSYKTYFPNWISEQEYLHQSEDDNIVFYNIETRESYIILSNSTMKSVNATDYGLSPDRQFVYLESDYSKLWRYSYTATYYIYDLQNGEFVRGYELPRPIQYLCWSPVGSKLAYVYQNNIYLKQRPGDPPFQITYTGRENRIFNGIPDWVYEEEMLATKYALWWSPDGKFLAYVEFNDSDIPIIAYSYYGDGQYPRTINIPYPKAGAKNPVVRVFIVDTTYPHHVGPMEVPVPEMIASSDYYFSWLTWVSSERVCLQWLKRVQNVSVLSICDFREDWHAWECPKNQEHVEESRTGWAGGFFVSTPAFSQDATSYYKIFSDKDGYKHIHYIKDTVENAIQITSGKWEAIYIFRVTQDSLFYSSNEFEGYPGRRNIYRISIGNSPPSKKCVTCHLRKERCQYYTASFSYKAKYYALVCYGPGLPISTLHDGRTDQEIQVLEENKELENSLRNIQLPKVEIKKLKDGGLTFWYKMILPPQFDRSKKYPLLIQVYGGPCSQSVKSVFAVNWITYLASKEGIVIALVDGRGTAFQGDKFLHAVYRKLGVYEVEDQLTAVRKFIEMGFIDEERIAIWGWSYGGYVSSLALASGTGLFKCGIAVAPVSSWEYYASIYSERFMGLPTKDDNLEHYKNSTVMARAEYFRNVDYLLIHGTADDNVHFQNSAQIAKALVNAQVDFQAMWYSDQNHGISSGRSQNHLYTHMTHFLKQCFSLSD
Protocol: as §1

[10] = target: Prolyl endopeptidase, Prolyl Oligopeptidase (hPREP) (Homo sapiens (Human), UniProt P48147); assay: hPrep inhibition assay; type: biochemical; details: hPREP 0.6 nM, Z-Gly-Pro-amino-methylcoumarin 50 μM; read-out: PREP IC50
Sequence of Prolyl endopeptidase, Prolyl Oligopeptidase (hPREP) (P48147 whole entry): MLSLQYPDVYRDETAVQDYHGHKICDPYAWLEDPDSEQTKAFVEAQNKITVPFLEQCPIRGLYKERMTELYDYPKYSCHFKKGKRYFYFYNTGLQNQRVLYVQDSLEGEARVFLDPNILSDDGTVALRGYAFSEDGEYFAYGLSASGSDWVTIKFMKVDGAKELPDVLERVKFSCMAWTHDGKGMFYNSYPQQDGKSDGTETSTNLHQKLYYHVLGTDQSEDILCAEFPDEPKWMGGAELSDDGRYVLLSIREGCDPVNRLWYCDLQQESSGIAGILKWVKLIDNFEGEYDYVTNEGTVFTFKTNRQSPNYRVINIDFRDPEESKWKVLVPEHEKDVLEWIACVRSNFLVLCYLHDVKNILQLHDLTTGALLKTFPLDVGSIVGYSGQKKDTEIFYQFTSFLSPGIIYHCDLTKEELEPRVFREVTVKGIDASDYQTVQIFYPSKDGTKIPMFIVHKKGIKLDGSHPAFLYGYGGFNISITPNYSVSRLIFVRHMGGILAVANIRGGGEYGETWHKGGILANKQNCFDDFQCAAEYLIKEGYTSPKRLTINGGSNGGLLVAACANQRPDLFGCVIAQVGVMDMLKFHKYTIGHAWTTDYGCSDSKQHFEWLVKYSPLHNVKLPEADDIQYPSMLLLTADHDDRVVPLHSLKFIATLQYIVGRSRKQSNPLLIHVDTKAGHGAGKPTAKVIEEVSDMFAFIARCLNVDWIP
How it was run: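 Fluorogenic read-out (340 nm excitation, 460 nm emission) after 20 min at rt, using 50 μM final Z-Gly-Pro-aminomethylcoumarin and 0.6 nM final enzyme, following 15 min compound preincubation. Buffer pH 7.5 with glutathione and Triton X-100. IC50 via one-site model on % inhibition vs log concentration.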

[11] = Metabolic stability in human hepatocytes (hHep); type: in vitro ADME; details: n = 1 or geometric mean of n = 2
[12] = Caco-2 cell permeability; details: human
Protocol: Caco-2 cell permeability was measured as described in Mol Pharm 2017, 14, 1601.

[13] = Solubility, kinetic solubility, n = 1 or average of n = 2-3
[14] = HLM CLint, n = 1 or average of n = 2-3

For N#C[C@@H]1CSCN1C(=O)CNC(=O)c1ccnc2ccc(N3CCC4(CCCCC4)OC3=O)cc12 [Example 110, (R)—N-(2-(4-cyanothiazolidin-3-yl)-2-oxoethyl)-6-(2-oxo-1-oxa-3-azaspiro[5.5]undecan-3-yl)quinoline-4-carboxamide], the IC50 [1] was greater than 100000 nM, the solubility [2] was 950 µM (≈ 469 µg/mL) and the “rHep CLint” value [3] was 3.3 μL/min/1E6. For the same compound, the microsomal CLint [4] was 39 µL/min/mg.
Work on N#C[C@@H]1CSCN1C(=O)CNC(=O)c1ccnc2ccc(N3C[C@@H](F)[C@@H](F)C3)cc12 [Example 50, N-(2-((R)-4-Cyanothiazolidin-3-yl)-2-oxoethyl)-6-((3R,4S)-3,4-difluoropyrrolidin-1-yl)quinoline-4-carboxamide] yielded an IC50 [5] of 0.34 nM, an IC50 [6] of 0.069 nM and a Kd [7] of 0.071 nM. It also gave an IC50 [8] of 0.3 nM, an IC50 [9] of 0.5 nM and an IC50 [10] of 540 nM. The “hHep CLint” value [11] was 1.7 μL/min/1E6, the solubility [2, 13] was 33 µM (≈ 14.2 µg/mL) and the Papp A→B [12] was 0.83 ×10⁻⁶ cm/s. The Papp B→A [12] was 27 ×10⁻⁶ cm/s, the efflux ratio [12] was 32 and the “rHep CLint” value [3] was 20 μL/min/1E6. The microsomal CLint [4, 14] was 13 µL/min/mg.
Work on N#C[C@@H]1CSCN1C(=O)CNC(=O)c1ccnc2ccc(N3CCC4(CCCC4)OC3=O)cc12 [Example 111, (R)—N-(2-(4-cyanothiazolidin-3-yl)-2-oxoethyl)-6-(7-oxo-6-oxa-8-azaspiro[4.5]decan-8-yl)quinoline-4-carboxamide] yielded an IC50 [1] greater than 100000 nM.
For N#C[C@@H]1CSCN1C(=O)CNC(=O)c1ccnc2ccc(N3C4CCC3COC4)cc12 [Example 98, 6-(3-Oxa-8-azabicyclo[3.2.1]octan-8-yl)-N-(2-((R)-4-cyanothiazolidin-3-yl)-2-oxoethyl)quinoline-4-carboxamide], the IC50 [5] was 0.27 nM, the IC50 [6] was 0.11 nM and the “hFAP Binding assay k(off)” value [7] was 0.000015 s⁻¹. The “hFAP Binding assay k(on)” value [7] was 1600000 M⁻¹ s⁻¹, the Kd [7] was 0.0088 nM and the IC50 [8] was 0.2 nM. For the same compound, the IC50 [9] was 0.4 nM, the IC50 [10] was 790 nM and the “hHep CLint” value [11] was 1.8 μL/min/1E6. The solubility [2, 13] was greater than 1000 µM, the Papp [12] was 8.6 ×10⁻⁶ cm/s and the Papp A→B [12] was 0.71 ×10⁻⁶ cm/s. The Papp B→A [12] was 18 ×10⁻⁶ cm/s, the efflux ratio [12] was 25 and the “rHep CLint” value [3] was 13 μL/min/1E6. It also gave a microsomal CLint [4, 14] of 26 µL/min/mg.
For CC1(C)CN(c2ccc3nccc(C(=O)NCC(=O)N4CSC[C@H]4C#N)c3c2)CCO1 [Example 88, (R)—N-(2-(4-Cyanothiazolidin-3-yl)-2-oxoethyl)-6-(2,2-dimethyl-morpholino)quinoline-4-carboxamide], the IC50 [5] was 0.31 nM, the IC50 [6] was 0.074 nM and the “hFAP Binding assay k(off)” value [7] was 0.00034 s⁻¹. For the same compound, the “hFAP Binding assay k(on)” value [7] was 4200000 M⁻¹ s⁻¹, the Kd [7] was 0.082 nM and the IC50 [8] was 0.2 nM. For the same compound, the IC50 [9] was 0.3 nM, the IC50 [10] was 1200 nM and the “hHep CLint” value [11] was less than 1 μL/min/1E6. It also gave a solubility [2, 13] greater than 980 µM, a Papp [12] of 13 ×10⁻⁶ cm/s and a Papp A→B [12] of 1.3 ×10⁻⁶ cm/s. For the same compound, the Papp B→A [12] was 29 ×10⁻⁶ cm/s, the efflux ratio [12] was 23 and the “rHep CLint” value [3] was 8.6 μL/min/1E6. The microsomal CLint [4, 14] was 22 µL/min/mg.
In the case of COC1CCN(c2ccc3nccc(C(=O)NCC(=O)N4CSC[C@H]4C#N)c3c2)CC1 [Example 8, (R)—N-(2-(4-Cyanothiazolidin-3-yl)-2-oxoethyl)-6-(4-methoxypiperidin-1-yl)quinoline-4-carboxamide], the IC50 [9] is reported as 0.2 nM and the IC50 [1] is reported as greater than 100000 nM.
With N#C[C@@H]1CSCN1C(=O)CNC(=O)c1ccnc2ccc(N3CC4(COC4)C3)cc12 [Example 166, (R)—N-(2-(4-Cyanothiazolidin-3-yl)-2-oxoethyl)-6-(2-oxa-6-azaspiro[3.3]heptan-6-yl)quinoline-4-carboxamide] the IC50 [5] was 0.34 nM, the IC50 [6] was 0.22 nM and the “hFAP Binding assay k(off)” value [7] was 0.000049 s⁻¹. The “hFAP Binding assay k(on)” value [7] was 2200000 M⁻¹ s⁻¹, the Kd [7] was 0.03 nM and the IC50 [8] was 0.3 nM. The IC50 [9] was 0.6 nM, the IC50 [10] was 1700 nM and the “hHep CLint” value [11] was less than 1 μL/min/1E6. The solubility [2] was greater than 910 µM, the Papp [12] was 2 ×10⁻⁶ cm/s and the Papp A→B [12] was 0.56 ×10⁻⁶ cm/s. The Papp B→A [12] was 13 ×10⁻⁶ cm/s, the efflux ratio [12] was 24 and the “rHep CLint” value [3] was less than 1 μL/min/1E6. For the same compound, the microsomal CLint [4] was less than 3 µL/min/mg.
In the case of N#C[C@@H]1CSCN1C(=O)CNC(=O)c1ccnc2ccc(N3CC(F)(CF)C3)cc12 [Example 157, (R)—N-(2-(4-Cyanothiazolidin-3-yl)-2-oxoethyl)-6-(3-fluoro-3-(fluoromethyl)azetidin-1-yl)quinoline-4-carboxamide], the IC50 [6] is reported as 0.37 nM, the “hFAP Binding assay k(off)” value [7] is reported as 0.00012 s⁻¹ and the “hFAP Binding assay k(on)” value [7] is reported as 1900000 M⁻¹ s⁻¹. It also gave a Kd [7] of 0.065 nM, an IC50 [8] of 0.3 nM and an IC50 [9] of 0.6 nM. The IC50 [10] was 1200 nM, the “hHep CLint” value [11] was less than 1 μL/min/1E6 and the solubility [2, 13] was 62 µM (≈ 26.8 µg/mL). It also gave a Papp A→B [12] of 2 ×10⁻⁶ cm/s, a Papp B→A [12] of 29 ×10⁻⁶ cm/s and an efflux ratio [12] of 15. For the same compound, the “rHep CLint” value [3] was less than 1 μL/min/1E6 and the microsomal CLint [4, 14] was 7.3 µL/min/mg.
For CC(=O)N1CC2(C1)CN(c1ccc3nccc(C(=O)NCC(=O)N4CSC[C@H]4C#N)c3c1)C2 [Example 184, (R)-6-(6-Acetyl-2,6-diazaspiro[3.3]heptan-2-yl)-N-(2-(4-cyanothiazolidin-3-yl)-2-oxoethyl)quinoline-4-carboxamide], the IC50 [5] was 0.4 nM, the IC50 [6] was 0.22 nM and the “hFAP Binding assay k(off)” value [7] was 0.000014 s⁻¹. For the same compound, the “hFAP Binding assay k(on)” value [7] was 950000 M⁻¹ s⁻¹, the Kd [7] was 0.015 nM and the IC50 [8] was 0.2 nM. For the same compound, the IC50 [9] was 0.6 nM, the IC50 [10] was 1100 nM and the “hHep CLint” value [11] was less than 1 μL/min/1E6. It also gave a solubility [2, 13] of 930 µM (≈ 432 µg/mL), a Papp [12] of 0.1 ×10⁻⁶ cm/s and a Papp A→B [12] of 0.25 ×10⁻⁶ cm/s. The Papp B→A [12] was 0.78 ×10⁻⁶ cm/s, the efflux ratio [12] was 3.1 and the “rHep CLint” value [3] was less than 1 μL/min/1E6. It also gave a microsomal CLint [4, 14] of less than 3 µL/min/mg.
In the case of N#C[C@@H]1CSCN1C(=O)CNC(=O)c1ccnc2ccc(N3CC(C(F)F)C3)cc12 [Example 28, (R)—N-(2-(4-Cyanothiazolidin-3-yl)-2-oxoethyl)-6-(3-(difluoromethyl)-azetidin-1-yl)quinoline-4-carboxamide], the IC50 [5] is reported as 0.26 nM, the IC50 [6] is reported as 0.1 nM and the “hFAP Binding assay k(off)” value [7] is reported as 0.00011 s⁻¹. The “hFAP Binding assay k(on)” value [7] was 1100000 M⁻¹ s⁻¹, the Kd [7] was 0.11 nM and the IC50 [8] was 0.2 nM. The IC50 [9] was 0.5 nM, the IC50 [10] was 580 nM and the “hHep CLint” value [11] was 2.6 μL/min/1E6. For the same compound, the solubility [2, 13] was 73 µM (≈ 31.5 µg/mL), the Papp [12] was 21 ×10⁻⁶ cm/s and the Papp A→B [12] was 1.6 ×10⁻⁶ cm/s. For the same compound, the Papp B→A [12] was 20 ×10⁻⁶ cm/s, the efflux ratio [12] was 12 and the “rHep CLint” value [3] was 13 μL/min/1E6. The microsomal CLint [4, 14] was less than 3 µL/min/mg.
